Measured values: the supplement of paper PMC10307832

Key:
Assay in all cases: relative viability (nuclei count vs DMSO), 5 days (fraction); higher = more cells survive
Pazopanib + Luminespib = compound: Cc1ccc(Nc2nccc(N(C)c3ccc4c(C)n(C)nc4c3)n2)cc1S(N)(=O)=O [Pazopanib] + CCNC(=O)c1noc(-c2cc(C(C)C)c(O)cc2O)c1-c1ccc(CN2CCOCC2)cc1 [Luminespib] (partner 0.01 µM)
Method in brief: (§1)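 Dosing by pin tool came one day after lung cancer cell lines were seeded in 1536-well plates, using either one drug or a fixed anchor-drug dose plus five library-drug doses (not always all listed) in √10 steps. After 5 days, nuclei were counted on 4× images. Relative viability is treated-well nuclei count divided by vehicle-well nuclei count, and values are medians of duplicate plates.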

Pazopanib + Linsitinib = compound: Cc1ccc(Nc2nccc(N(C)c3ccc4c(C)n(C)nc4c3)n2)cc1S(N)(=O)=O [Pazopanib] + C[C@]1(O)C[C@@H](c2nc(-c3ccc4ccc(-c5ccccc5)nc4c3)c3c(N)nccn32)C1 [Linsitinib] (partner 1 µM)
Method in brief: as §1

Ponatinib + Vorinostat = compound: Cc1ccc(C(=O)Nc2ccc(CN3CCN(C)CC3)c(C(F)(F)F)c2)cc1C#Cc1cnc2cccnn12 [Ponatinib] + O=C(CCCCCCC(=O)Nc1ccccc1)NO [Vorinostat] (partner 1 µM)
Method in brief: as §1

Pazopanib + Olaparib = compound: Cc1ccc(Nc2nccc(N(C)c3ccc4c(C)n(C)nc4c3)n2)cc1S(N)(=O)=O [Pazopanib] + O=C(c1cc(Cc2n[nH]c(=O)c3ccccc23)ccc1F)N1CCN(C(=O)C2CC2)CC1 [Olaparib] (partner 8 µM)
Method in brief: as §1

Cell Line	relative viability (Pazopanib + Luminespib; first compound 0.01 µM)	relative viability (Pazopanib + Luminespib; first compound 0.03162 µM)	relative viability (Pazopanib + Luminespib; first compound 0.1 µM)	relative viability (Pazopanib + Luminespib; first compound 0.3162 µM)	relative viability (Pazopanib + Luminespib; first compound 1 µM)	relative viability (Pazopanib + Linsitinib; first compound 0.03162 µM)	relative viability (Pazopanib + Linsitinib; first compound 0.1 µM)	relative viability (Pazopanib + Linsitinib; first compound 0.3162 µM)	relative viability (Pazopanib + Linsitinib; first compound 1 µM)	relative viability (Ponatinib + Vorinostat; first compound 0.002 µM)	relative viability (Ponatinib + Vorinostat; first compound 0.006325 µM)	relative viability (Ponatinib + Vorinostat; first compound 0.06325 µM)	relative viability (Ponatinib + Vorinostat; first compound 0.2 µM)	relative viability (Pazopanib + Olaparib; first compound 0.03162 µM)	relative viability (Pazopanib + Olaparib; first compound 0.1 µM)	relative viability (Pazopanib + Olaparib; first compound 0.3162 µM)	relative viability (Pazopanib + Olaparib; first compound 1 µM)	relative viability (Pazopanib + Linsitinib; first compound 0.01 µM)	relative viability (Pazopanib + Olaparib; first compound 0.01 µM)
LCLC-97TM1	0.817	0.839	0.831	0.925	0.736	0.229	0.154	0.2	0.211	0.806	0.748	0.665	0.535	0.313	0.534	0.293	0.252	–	–
NCI-H838	0.351	0.351	0.282	0.21	0.322	1.05	1.01	1.18	1.19	0.755	0.764	0.773	0.664	0.843	0.776	0.816	0.82	1.01	0.745
NCI-H1355	0.695	0.709	0.816	0.675	0.838	0.909	0.921	0.856	0.861	0.564	0.604	0.677	0.615	0.708	0.76	0.761	0.754	–	0.716
HOP-62	0.79	0.89	0.915	0.953	0.981	0.973	–	1	0.859	0.516	0.509	0.682	0.597	0.454	0.518	0.383	0.288	0.9	0.411
NCI-H2085	0.461	0.41	0.5	0.434	0.425	0.862	0.901	0.797	0.887	0.768	0.877	1.02	0.825	0.759	0.796	0.704	0.713	0.818	0.821
